Results taken from patent US20030032003A1, “IN VIVO SELECTION” (priority 2000, published 2003).

Key:
[1] = tested on: Hprt +/+ bone marrow of recipient mice; test: Bone marrow replacement, Southern blot analysis of Y (donor) DNA; assay type: in vivo, mouse
From the text: The replacement of Hprt positive bone marrow with Hprt deficient bone marrow was examined by Southern blot analysis. Since recipients animals were females and donor bone marrow was of male origin, we have determined the fraction of cells containing chromosome (Y) in hematopoetic organs (bone marrow, spleen, thymus) and peripheral tissue (tail) in recipient animals. The Y chromosome was detected in 6TG treated and control animals.
Next Applicants tested whether “in vivo selection” without whole body irradiation can lead to complete bone marrow replacement. The wild type recipient mice were pretreated with 6TG (10 mg/kg twice in 48 hrs interval) or with sterile PBS and the Hprt deficient bone marrow was transplanted. The animals in the experimental group were 6TG pretreated followed with the 6TG in vivo selection protocol (described herein above). The control animals (6TG or PBS pretreated) were treated with sterile PBS buffer instead of 6TG. The degree of bone marrow replacement was evaluated by Southern blot analysis in hematopoetic tissues (bone marrow, spleen, thymus) and blood at the end of the 7th week post transplantation.

Hprt −/− mice [2] = test: Histopathological analysis of mouse tissues after 6TG
Hprt −/− mice [3] = test: Biochemical analysis of mouse serum after 6TG; assay type: in vivo; conditions: serum 14 days after treatment
Protocol: Serum biochemistry parameters analyzed included blood urea nitrogen (BUN), aspartate amino transferase (AST), alanine amino transferase (ALT), creatine kinase (CK), and alkaline phosphatase (AP). The analyses were performed at Tufts University Veterinary Medical Diagnosis Laboratory with the chemical analyser Hitachi 747. Blood was collected from the posterior vena cava of Hprt deficient mice that were either treated with water, 25, 500, or 720 mg/kg 6TG i.p. and wildtype mice administered 25 mg/kg 6TG.
[…] Serum samples taken 14 days after treatment were evaluated for the levels of blood urea nitrogen (BUN), aspartate amino transferase (AST), alanine amino transferase (ALT), creatine kinase (CK) and alkaline phosphatase (AP). Elevated BUN is associated with dehydratation and/or renal insufficiency. Elevated activities of ALT and AST are characteristic for liver damage particularly necrosis, cirrhosis and/or hepatitis and also muscle trauma or myocardial infarction or myositis. Elevated AP is associated mostly with increased bone marrow metabolism and also with hapatocellular damage during hepatitis. CK is predominantly located in muscles and therefore its increased activities are consequence of muscular trauma, myocardial infarction or myopathic disorders.

[4] = Hprt −/−, 6TG lethal 1148-2561 mg/kg, 3 mice
[5] = Hprt −/−, 6TG sublethal 25-720 mg/kg, 11 mice

SMILES: Nc1nc(S)c2[nH]cnc2n1 [6TG, 2-amino-6-merkaptopurine]
- bone marrow replacement ([1]; 6TG in vivo selection protocol, whether or not irradiation was used, end of 7th week post transplantation): 100%
- engraftment of Hprt deficient bone marrow cells (containing Y chomosome) ([1]; irradiated recipients, 6TG selection in comparison to control animals): significantly increased engraftment
- hyperplasia dose below doses causing toxicity (Hprt −/− mice [2]; Hprt deficient animals): 40 fold
- dose at which liver necrosis appears (Hprt −/− mice [2]; Hprt deficient mice): ≥ 507 mg/kg
- Kidneys Glomerulopathy, severity grade (Hprt −/− mice [2]; Hprt −/−, 25 mg/kg i.p.): 1
- Kidneys Intersticial inflamation, severity grade (Hprt −/− mice [2]; Hprt −/−, 25 mg/kg i.p.): 2
- Liver Centrilobular hypertrophy, severity grade (Hprt −/− mice [2]; Hprt −/−, 25 mg/kg i.p.): 3
- Bone marrow Hypercellular, severity grade (Hprt −/− mice [2]; Hprt −/−, 50 mg/kg i.p.): 1.0 ± 1.0
- Liver Centrilobular hypertrophy, severity grade (Hprt −/− mice [2]; Hprt −/−, 50 mg/kg i.p.): 1.5 ± 0.5
- Liver Fatty change, severity grade (Hprt −/− mice [2]; Hprt −/−, 50 mg/kg i.p.): 1.0 ± 1.0
- Bone marrow Hypercellular, severity grade (Hprt −/− mice [2]; Hprt −/−, 100 mg/kg i.p.): 1
- Liver Centrilobular hypertrophy, severity grade (Hprt −/− mice [2]; Hprt −/−, 100 mg/kg i.p.): 2
- Liver Extramedullary hematopoesis, severity grade (Hprt −/− mice [2]; Hprt −/−, 100 mg/kg i.p.): 1
- Liver Fatty change, severity grade (Hprt −/− mice [2]; Hprt −/−, 100 mg/kg i.p.): 1
- Bone marrow Hypercellular, severity grade (Hprt −/− mice [2]; Hprt −/−, 150 mg/kg i.p.): 2
- Kidneys Glomerulopathy, severity grade (Hprt −/− mice [2]; Hprt −/−, 150 mg/kg i.p.): 3
- Kidneys Intersticial inflamation, severity grade (Hprt −/− mice [2]; Hprt −/−, 150 mg/kg i.p.): 2
- Kidneys Tubule basophilia, severity grade (Hprt −/− mice [2]; Hprt −/−, 150 mg/kg i.p.): 1
- Kidneys Tubule dilatation, severity grade (Hprt −/− mice [2]; Hprt −/−, 150 mg/kg i.p.): 2
- Liver Centrilobular hypertrophy, severity grade (Hprt −/− mice [2]; Hprt −/−, 150 mg/kg i.p.): 2
- Liver Extramedullary hematopoesis, severity grade (Hprt −/− mice [2]; Hprt −/−, 150 mg/kg i.p.): 1
- Liver Fatty change, severity grade (Hprt −/− mice [2]; Hprt −/−, 150 mg/kg i.p.): 3
- Bone marrow Hypercellular, severity grade (Hprt −/− mice [2]; Hprt −/−, 225 mg/kg i.p.): 2
- Kidneys Glomerulopathy, severity grade (Hprt −/− mice [2]; Hprt −/−, 225 mg/kg i.p.): 2
- Kidneys Intersticial inflamation, severity grade (Hprt −/− mice [2]; Hprt −/−, 225 mg/kg i.p.): 2
- Kidneys Tubule basophilia, severity grade (Hprt −/− mice [2]; Hprt −/−, 225 mg/kg i.p.): 2
- Kidneys Tubule dilatation, severity grade (Hprt −/− mice [2]; Hprt −/−, 225 mg/kg i.p.): 2
- Liver Extramedullary hematopoesis, severity grade (Hprt −/− mice [2]; Hprt −/−, 225 mg/kg i.p.): 1
- Liver Fatty change, severity grade (Hprt −/− mice [2]; Hprt −/−, 225 mg/kg i.p.): 2
- Bone marrow Hypercellular, severity grade (Hprt −/− mice [2]; Hprt −/−, 338 mg/kg i.p.): 1
- Kidneys Glomerulopathy, severity grade (Hprt −/− mice [2]; Hprt −/−, 338 mg/kg i.p.): 1
- Kidneys Intersticial inflamation, severity grade (Hprt −/− mice [2]; Hprt −/−, 338 mg/kg i.p.): 2
- Kidneys Tubule basophilia, severity grade (Hprt −/− mice [2]; Hprt −/−, 338 mg/kg i.p.): 1
- Kidneys Tubule dilatation, severity grade (Hprt −/− mice [2]; Hprt −/−, 338 mg/kg i.p.): 1
- Liver Centrilobular hypertrophy, severity grade (Hprt −/− mice [2]; Hprt −/−, 338 mg/kg i.p.): 1
- Liver Extramedullary hematopoesis, severity grade (Hprt −/− mice [2]; Hprt −/−, 338 mg/kg i.p.): 1
- Liver Fatty change, severity grade (Hprt −/− mice [2]; Hprt −/−, 338 mg/kg i.p.): 2
- Spleen Lymphoid depletion, severity grade (Hprt −/− mice [2]; Hprt −/−, 338 mg/kg i.p.): 1
- Bone marrow Hypercellular, severity grade (Hprt −/− mice [2]; Hprt −/−, 507 mg/kg i.p.): 1.5 ± 0.5
- Kidneys Tubule basophilia, severity grade (Hprt −/− mice [2]; Hprt −/−, 507 mg/kg i.p.): 1.5 ± 0.5
- Kidneys Tubule dilatation, severity grade (Hprt −/− mice [2]; Hprt −/−, 507 mg/kg i.p.): 0.5 ± 0.5
- Liver Atrophy necrosis, severity grade (Hprt −/− mice [2]; Hprt −/−, 507 mg/kg i.p.): 1.0 ± 0.0
- Liver Centrilobular hypertrophy, severity grade (Hprt −/− mice [2]; Hprt −/−, 507 mg/kg i.p.): 2.0 ± 0.0
- Liver Extramedullary hematopoesis, severity grade (Hprt −/− mice [2]; Hprt −/−, 507 mg/kg i.p.): 1.5 ± 0.5
- Liver Fatty change, severity grade (Hprt −/− mice [2]; Hprt −/−, 507 mg/kg i.p.): 2.5 ± 0.5
- Bone marrow Hypercellular, severity grade (Hprt −/− mice [2]; Hprt −/−, 720 mg/kg i.p.): 1.5 ± 0.5
- Kidneys Glomerulopathy, severity grade (Hprt −/− mice [2]; Hprt −/−, 720 mg/kg i.p.): 0.5 ± 0.5
- Kidneys Intersticial inflamation, severity grade (Hprt −/− mice [2]; Hprt −/−, 720 mg/kg i.p.): 1.5 ± 0.5
- Kidneys Tubule basophilia, severity grade (Hprt −/− mice [2]; Hprt −/−, 720 mg/kg i.p.): 1.5 ± 0.5
- Kidneys Tubule dilatation, severity grade (Hprt −/− mice [2]; Hprt −/−, 720 mg/kg i.p.): 1.5 ± 0.5
- Liver Atrophy necrosis, severity grade (Hprt −/− mice [2]; Hprt −/−, 720 mg/kg i.p.): 0.5 ± 0.5
- Liver Centrilobular hypertrophy, severity grade (Hprt −/− mice [2]; Hprt −/−, 720 mg/kg i.p.): 1.0 ± 0.0
- Liver Extramedullary hematopoesis, severity grade (Hprt −/− mice [2]; Hprt −/−, 720 mg/kg i.p.): 1.0 ± 0.0
- Liver Fatty change, severity grade (Hprt −/− mice [2]; Hprt −/−, 720 mg/kg i.p.): 1.5 ± 0.5
- Spleen Lymphoid depletion, severity grade (Hprt −/− mice [2]; Hprt −/−, 720 mg/kg i.p.): 0.5 ± 0.5
- Bone marrow Depletion, average of lesion severity grade (Hprt −/− mice [2]; [4]): 2.3 ± 0.6
- Bone marrow Necrosis, average of lesion severity grade (Hprt −/− mice [2]; [4]): 3.0 ± 0.0
- Gastric epithelium Atrophy, average of lesion severity grade (Hprt −/− mice [2]; [4]): 0.6 ± 0.6
- Intestinal epithelium Atrophy, average of lesion severity grade (Hprt −/− mice [2]; [4]): 0.6 ± 0.6
- Kidneys Tubule dilatation, average of lesion severity grade (Hprt −/− mice [2]; [4]): 0.3 ± 0.6
- Liver Atrophy necrosis, average of lesion severity grade (Hprt −/− mice [2]; [4]): 1.3 ± 0.6
- Liver Centrilobular hypertrophy, average of lesion severity grade (Hprt −/− mice [2]; [4]): 1.0 ± 1.7
- Liver Extramedullary hematopoesis, average of lesion severity grade (Hprt −/− mice [2]; [4]): 0.3 ± 0.6
- Liver Fatty change, average of lesion severity grade (Hprt −/− mice [2]; [4]): 3.3 ± 0.6
- Spleen Lymphoid depletion, average of lesion severity grade (Hprt −/− mice [2]; [4]): 3.7 ± 0.6
- Spleen Necrosis, average of lesion severity grade (Hprt −/− mice [2]; [4]): 2.0 ± 1.7
- Bone marrow Hypercellular, average of lesion severity grade (Hprt −/− mice [2]; [5]): 1.2 ± 0.6
- Kidneys Glomerulopathy, average of lesion severity grade (Hprt −/− mice [2]; [5]): 1.0 ± 1.0
- Kidneys Intersticial inflamation, average of lesion severity grade (Hprt −/− mice [2]; [5]): 1.5 ± 1.0
- Kidneys Tubule basophilia, average of lesion severity grade (Hprt −/− mice [2]; [5]): 0.9 ± 0.8
- Kidneys Tubule dilatation, average of lesion severity grade (Hprt −/− mice [2]; [5]): 0.9 ± 0.9
- Liver Atrophy necrosis, average of lesion severity grade (Hprt −/− mice [2]; [5]): 0.2 ± 0.4
- Liver Centrilobular hypertrophy, average of lesion severity grade (Hprt −/− mice [2]; [5]): 1.2 ± 0.8
- Liver Extramedullary hematopoesis, average of lesion severity grade (Hprt −/− mice [2]; [5]): 0.8 ± 0.5
- Liver Fatty change, average of lesion severity grade (Hprt −/− mice [2]; [5]): 1.6 ± 0.9
- Spleen Lymphoid depletion, average of lesion severity grade (Hprt −/− mice [2]; [5]): 02 ± 0.4
- ALT (Hprt −/− mice [3]; 25 mg/kg single i.p.): 28.7 ± 14.9 u/l
- AP (Hprt −/− mice [3]; 25 mg/kg single i.p.): 78.7 ± 22.5 u/l
- AST (Hprt −/− mice [3]; 25 mg/kg single i.p.): 53.3 ± 17.5 u/l
- BUN (Hprt −/− mice [3]; 25 mg/kg single i.p.): 18.5 ± 0.6 mg/dL
- CK (Hprt −/− mice [3]; 25 mg/kg single i.p.): 67.7 ± 41.2 u/l
- ALT (Hprt −/− mice [3]; 500 mg/kg single i.p.): 14.3 ± 3.5 u/l
- AP (Hprt −/− mice [3]; 500 mg/kg single i.p.): 71.0 ± 38.0 u/l
- AST (Hprt −/− mice [3]; 500 mg/kg single i.p.): 50. ± 11.8 u/l
- BUN (Hprt −/− mice [3]; 500 mg/kg single i.p.): 18.0 ± 1.0 mg/dL
- CK (Hprt −/− mice [3]; 500 mg/kg single i.p.): 52.0 ± 23.3 u/l
- ALT (Hprt −/− mice [3]; 720 mg/kg single i.p.): 13.7 ± 1.5 u/l
- AP (Hprt −/− mice [3]; 720 mg/kg single i.p.): 78.7 ± 20.5 u/l
- AST (Hprt −/− mice [3]; 720 mg/kg single i.p.): 43.3 ± 14.0 u/l
- BUN (Hprt −/− mice [3]; 720 mg/kg single i.p.): 20.0 ± 2.7 mg/dL
- CK (Hprt −/− mice [3]; 720 mg/kg single i.p.): 37.3 ± 11.6 u/l
